Test results reported in patent publication US10597388B2, “Pyridazinone herbicides” (FMC CORPORATION, priority 2014, dated 2020).

Assays:
Assay in all cases: Test D controlled growth environment herbicide test, pre- and postemergence
Type in all cases: in vivo
[1] = test system: barley, spring (spring barley, Hordeum vulgare)
How it was run: (§1)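 Pre-emergence: seeds sown in silt loam soil were sprayed with compound in a non-phytotoxic solvent mix containing surfactant. Post-emergence: plants at 2 to 18 cm (1- to 4-leaf stage) in peat moss/vermiculite medium got the same formulation. Visual 0–100 rating versus controls after 14 to 21 d.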

[2] = test system: windgrass (Apera spica-venti)
How it was run: as §1

[3] = test system: oat, wild (wild oat, Avena fatua)
How it was run: as §1

[4] = test system: radish, wild (wild radish, Raphanus raphanistrum)
How it was run: as §1

[5] = test system: wheat, spring (spring wheat, Triticum aestivum)
How it was run: as §1

[6] = test system: ryegrass, Italian (Italian ryegrass, Lolium multiflorum)
How it was run: as §1

[7] = test system: field poppy (Papaver rhoeas)
How it was run: as §1

[8] = test system: Russian thistle (Salsola kali)
How it was run: as §1

[9] = test system: buckwheat, wild (wild buckwheat, Polygonum convolvulus)
How it was run: as §1

[10] = test system: deadnettle (henbit deadnettle, Lamium amplexicaule)
How it was run: as §1

[11] = test system: oilseed rape (Brassica napus)
How it was run: as §1

[12] = test system: canarygrass (Phalaris minor)
How it was run: as §1

[13] = test system: speedwell (bird's-eye speedwell, Veronica persica)
How it was run: as §1

[14] = Postemergence, 31 g ai/ha, scale 0 to 100 (0 no effect, 100 complete control)
[15] = Postemergence, 125 g ai/ha, visual rating on scale 0 (no effect) to 100 (complete control), 14 to 21 d
[16] = Postemergence, 250 g ai/ha, scale 0 to 100 (0 no effect, 100 complete control)
[17] = Preemergence, 62 g ai/ha, scale 0 to 100 (0 no effect, 100 complete control)
[18] = Preemergence, 125 g ai/ha, scale 0 to 100 (0 no effect, 100 complete control)
[19] = Preemergence, 250 g ai/ha, scale 0 to 100, 0 no effect, 100 complete control
[20] = postemergence, 62 g ai/ha, scale 0 to 100, 0 no effect, 100 complete control

Cc1nn(C)c(=O)c(-c2ccc(F)c3ccccc23)c1O [Compound 41]
40: Windgrass plant response rating [2, 14] | Plant response rating, Wheat, Spring [5, 16] | Plant response rating (scale of 0 to 100), Wheat, Spring ([5]; Preemergence, 31 g ai/ha) | Plant response rating, Russian Thistle [8, 18]
55: Plant response rating, Windgrass [2, 20] | Plant response rating, Wheat, Spring [5, 17] | Field Poppy plant response rating [7, 14] | Plant response rating, Buckwheat, Wild [9, 17] | Plant response rating, Oilseed Rape [11, 16] | Canarygrass plant response rating [12, 14]
15: Wheat, Spring plant response rating [5, 14] | Plant response rating, Oilseed Rape [11, 19]
65: Plant response rating, Buckwheat, Wild [9, 18]
90: Plant response rating, Oat, Wild [3, 17] | Plant response rating, Oat, Wild [3, 18] | Radish, Wild plant response rating [4, 14] | Plant response rating, Radish, Wild [4, 15] | Plant response rating, Ryegrass, Italian [6, 16] | Plant response rating, Buckwheat, Wild [9, 20] | Plant response rating, Deadnettle [10, 17] | Plant response rating (scale of 0 to 100), Canarygrass ([12]; Preemergence, 31 g ai/ha) | Plant response rating, Canarygrass [12, 17] | Plant response rating, Canarygrass [12, 18]
100: Plant response rating, Radish, Wild [4, 19] | Plant response rating, Ryegrass, Italian [6, 17] | Plant response rating, Ryegrass, Italian [6, 18] | Plant response rating, Ryegrass, Italian [6, 19] | Plant response rating, Buckwheat, Wild [9, 16] | Plant response rating, Deadnettle [10, 16] | Plant response rating, Deadnettle [10, 18] | Plant response rating, Deadnettle [10, 19] | Plant response rating, Deadnettle [10, 20] | Speedwell plant response rating [13, 14] | Plant response rating, Speedwell [13, 15] | Plant response rating, Speedwell [13, 16] | Plant response rating (scale of 0 to 100), Speedwell ([13]; Preemergence, 31 g ai/ha) | Plant response rating, Speedwell [13, 18] | Plant response rating, Speedwell [13, 19] | Plant response rating, Speedwell [13, 20]
10: Plant response rating, Barley, Spring [1, 15]
25: Plant response rating (scale of 0 to 100), Radish, Wild ([4]; Preemergence, 31 g ai/ha) | Plant response rating (scale of 0 to 100), Russian Thistle ([8]; Preemergence, 31 g ai/ha) | Plant response rating, Oilseed Rape [11, 15] | Plant response rating, Oilseed Rape [11, 18]
70: Plant response rating (scale of 0 to 100), Windgrass ([2]; Preemergence, 31 g ai/ha) | Oat, Wild plant response rating [3, 14] | Plant response rating, Wheat, Spring [5, 18] | Russian Thistle plant response rating [8, 14] | Plant response rating, Russian Thistle [8, 19] | Plant response rating, Russian Thistle [8, 20] | Plant response rating, Canarygrass [12, 20]
5: Plant response rating, Barley, Spring [1, 20] | Plant response rating, Oilseed Rape [11, 17] | Plant response rating, Oilseed Rape [11, 20]
60: Barley, Spring plant response rating [1, 19] | Plant response rating, Windgrass [2, 15]
75: Plant response rating, Windgrass [2, 16] | Plant response rating, Windgrass [2, 17] | Plant response rating, Field Poppy [7, 15] | Plant response rating, Russian Thistle [8, 15] | Plant response rating, Russian Thistle [8, 16] | Plant response rating, Buckwheat, Wild [9, 19]
95: Plant response rating, Windgrass [2, 19] | Plant response rating, Oat, Wild [3, 19] | Plant response rating, Radish, Wild [4, 16] | Plant response rating, Radish, Wild [4, 18] | Plant response rating (scale of 0 to 100), Ryegrass, Italian ([6]; Preemergence, 31 g ai/ha) | Plant response rating, Field Poppy [7, 16] | Plant response rating (scale of 0 to 100), Field Poppy ([7]; Preemergence, 31 g ai/ha) | Plant response rating, Field Poppy [7, 17] | Plant response rating, Field Poppy [7, 19] | Plant response rating, Buckwheat, Wild [9, 15] | Plant response rating, Canarygrass [12, 19] | Plant response rating, Speedwell [13, 17]
30: Plant response rating, Barley, Spring [1, 18] | Plant response rating, Wheat, Spring [5, 15]
20: Plant response rating, Barley, Spring [1, 16] | Plant response rating, Wheat, Spring [5, 20] | Plant response rating, Russian Thistle [8, 17]
85: Plant response rating, Oat, Wild [3, 15] | Plant response rating, Oat, Wild [3, 16] | Plant response rating (scale of 0 to 100), Oat, Wild ([3]; Preemergence, 31 g ai/ha) | Plant response rating, Radish, Wild [4, 17] | Plant response rating, Wheat, Spring [5, 19] | Plant response rating, Ryegrass, Italian [6, 15] | Plant response rating, Ryegrass, Italian [6, 20] | Deadnettle plant response rating [10, 14]
0: Plant response rating, Barley, Spring [1, 14] | Plant response rating (scale of 0 to 100), Barley, Spring ([1]; Preemergence, 31 g ai/ha) | Plant response rating, Barley, Spring [1, 17] | Oilseed Rape plant response rating [11, 14] | Plant response rating (scale of 0 to 100), Oilseed Rape ([11]; Preemergence, 31 g ai/ha)
35: Plant response rating (scale of 0 to 100), Buckwheat, Wild ([9]; Preemergence, 31 g ai/ha) | Plant response rating (scale of 0 to 100), Deadnettle ([10]; Preemergence, 31 g ai/ha)
80: Plant response rating, Windgrass [2, 18] | Plant response rating, Oat, Wild [3, 20] | Plant response rating, Radish, Wild [4, 20] | Ryegrass, Italian plant response rating [6, 14] | Plant response rating, Field Poppy [7, 20] | Buckwheat, Wild plant response rating [9, 14] | Plant response rating, Deadnettle [10, 15] | Plant response rating, Canarygrass [12, 15] | Plant response rating, Canarygrass [12, 16]
